The target in one assay is recombinant Tdp1 (Homo sapiens, UniProt Q9NUW8). Put plainly: Gel-based Tdp1 catalytic activity inhibition assay (5'-32P-labeled N14Y DNA substrate, denaturing PAGE). The format is biochemical. The conditions noted are these: for IC50: 0.2 nmol/L recombinant Tdp1, 1 nmol/L N14Y substrate, 15 min, room temperature. How it is done:
5′-^32P-labeled DNA substrate (1 nmol/L; N14Y; 5′-[…]-pY-3′) was incubated with 0.2 nmol/L recombinant Tdp1 in the absence or presence of inhibitor for 15 min at room temperature in an assay buffer containing 1×PBS, pH 7.4, 80 mmol/L KCl and 0.01% Tween-20. Reactions were terminated by the addition of 1 volume of gel loading buffer [99.5% (v/v) formamide, 5 mmol/L EDTA, 0.01% (w/v) xylene cyanol, and 0.01% (w/v) bromophenol blue]. Samples were subjected to a 16% denaturing PAGE and gels were exposed after drying to a PhosphorImager screen (GE Healthcare). Gel images were scanned using a Typhoon 8600 (GE Healthcare) and densitometric analyses were performed using the ImageQuant software package (GE Healthcare).

Assay [1] deals with human osteosarcoma U2OS cells. Description: Cytotoxicity/proliferation (MTS) assay for synergy with camptothecin. The format is cell-based. As to conditions: 72 hours, NF-SDM at 3, 6 and 12 μM. How it is done: U2OS cells (Developmental Therapeutics Program, NCI) were plated at 3×10^3 cells in a total volume of 100 μl per well in a 96 well plate and incubated at 37° C./5% CO2 for 24 hours prior to drug treatment. CPT and another drug of interest (both in DMSO stock solution) were prepared at double the desired concentration, and serially diluted in cells' media. After medium was aspirated off cells, 50 μl of CPT was plated down each column at four-fold dilutions in subsequent columns and 50 μl of another drug of interest was plated across rows, at two-fold dilutions in subsequent rows. A single drug dose response was also included for each drug tested, to which 50 μl of regular media was added to reconstitute a final volume of 100 μl in each well. Plates were further incubated for 72 hours and proliferation was assayed by adding 20 μl of 3-(4,5-dimethylthiazol-2-yl)-5-(3 carboxymethoxyphenyl)-2-(4-sulfophenyl)-2H-tetrazolium (MTS) Cell Titer Reagent (Promega) to each well. Plates were lightly mixed and placed back into the incubator until the appropriate color change occurred (˜1 hr), at which point plates were read on a Molecular Device Gemini fluorescence plate reader at an absorbance of 490 nm for cell viability. Raw data were plotted using GraphPad Prism and compared to each sample's control (GraphPad Software Inc.).

Where [2] appears, read: read-out: unable to inhibit Tdp1 / inactive at concentrations up to.

Each structure is given as a SMILES string. “Also recorded” adds a separate entry of the source. Like-named read-outs stand apart in the source and are kept apart here.

Chain of recombinant Tdp1 (Q9NUW8 whole entry): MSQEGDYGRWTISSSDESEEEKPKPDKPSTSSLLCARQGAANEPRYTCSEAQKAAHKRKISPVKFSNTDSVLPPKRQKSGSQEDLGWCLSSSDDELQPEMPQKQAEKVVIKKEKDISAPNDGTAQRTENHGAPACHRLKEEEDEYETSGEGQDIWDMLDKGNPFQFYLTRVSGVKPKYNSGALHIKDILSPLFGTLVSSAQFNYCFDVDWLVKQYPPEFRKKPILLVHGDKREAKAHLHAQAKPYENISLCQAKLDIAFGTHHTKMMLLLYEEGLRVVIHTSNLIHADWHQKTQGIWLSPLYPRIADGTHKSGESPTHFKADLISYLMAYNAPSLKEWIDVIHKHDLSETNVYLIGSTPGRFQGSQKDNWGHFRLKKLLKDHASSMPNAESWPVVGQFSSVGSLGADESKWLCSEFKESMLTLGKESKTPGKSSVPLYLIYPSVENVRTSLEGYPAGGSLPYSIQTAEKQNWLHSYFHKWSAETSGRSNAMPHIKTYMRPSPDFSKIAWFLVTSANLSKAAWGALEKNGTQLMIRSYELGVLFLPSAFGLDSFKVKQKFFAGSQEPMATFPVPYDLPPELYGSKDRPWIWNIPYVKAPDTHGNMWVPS

With `CCn1cc(C(=O)O)c(=O)c2cc(F)c(N3CCNCC3)cc21` [norfloxacin], the IC50 on recombinant Tdp1 (setting [2]) was more than 333 µM. Consider `Cc1cc(C)nc(NS(=O)(=O)c2ccc(N)cc2)n1` [sulfadimidine], for which the “Tdp1 inhibitory activity (in words)” value at recombinant Tdp1 was “does not inhibit Tdp1”. On recombinant Tdp1 (setting [2]), the IC50 is more than 333 µM. As to `COc1c(N2CCNC(C)C2)c(F)cc2c(=O)c(C(=O)O)cn(C3CC3)c12` (stereo not shown) [gatifloxacin], the IC50 at recombinant Tdp1 (setting [2]) was more than 333 µM. Regarding `CCn1cc(C(=O)O)c(=O)c2cc(F)c(N3CCN(CNc4ccc(S(=O)(=O)Nc5nc(C)cc(C)n5)cc4)CC3)cc21` [NF-SDM], the “Tdp1 inhibitory activity (in words)” value at recombinant Tdp1 is “nanomolar range”. On recombinant Tdp1 (read-out: inhibit Tdp1 catalytic activity (IC50 Tdp1 inhibition)), the IC50 worked out at 0.005 µM. Also, the “synergy with the TopI poison camptothecin (CPT) on cell growth/viability” value in assay [1] is on record as “synergize with CPT; also recorded: synergistic effect; also recorded: acts synergistically”.

These data come from US8716295B2, “Fluoroquinolone derivatives or sulfonamide moiety-containing compounds as inhibitors of tyrosyl-dnaphosphodiesterase (TDP1)” (priority 2010, dated 2014).
